pEC50: −log10 of the molar value. Read-outs that look alike come from different tables or passages of the source.

The values below come from patent publication US20180327354A1, “Unnatural Analogues of Calcitriol and Uses Thereof” (Vidasym, Inc., priority 2009, published 2018).

For one series, the system named is CYP24A1. Nature of the series: CYP24A1 expression induction in HL-60 promyelocytic leukemia cells (real-time RT-PCR). The class given is cell-based. To be noted: Homo sapiens; HL-60 cells, 24 h, mRNA normalized to GAPDH; Table 3 summary, some values average of 3 or more determinations; read-out: CYP24A1 EC50. The procedure: (§1) Some compounds were tested in HL-60 promyelocytic leukemia cells and a primary culture of human coronary artery smooth muscle cells (HCASMC) for CYP24A1 induction. It is well documented that CYP24A1 has a VDRE in its promoter region and is a specific target gene of VDR (Meyer et al., 2007, J Biol Chem 282: 22344-22352). […] Compounds also were tested in HCASMC for their effects in inducing VDR. To assess the suitability of a compound for modulating immune responses, compounds were tested in HL-60 for their effects in inducing CD14 expression. To assess the suitability of a compound for treating thrombosis, compounds also were tested in HCASMC for their effects in modulating thrombomodulin and thrombospondin-1.
(§2) Compounds are tested in human HL-60 promyelocytic leukemia cells to assess their potency in inducing the expression of CYP24A1 and CD14. HL-60 cells are cultured in IMDM supplemented with 20% heat-inactivated fetal bovine serum at 37° C. in a humidified 5% CO2-95% air atmosphere. Cells are plated into 6 well plates and treated with test agent for 24 h. Cells are lysed with the addition of 1 mL of Trizol and RNA prepared according to the manufacturer's protocol.
(§3) Real-time reverse transcription-PCR is performed with the forward and reverse PCR primers and 250 nM of the TAQMAN™ probe specifically designed for CYP24A1 or CD14. (A TAQMAN™ probe is comprised of a fluorophore covalently attached to the 5′-end of the oligonucleotide probe and a quencher at the 3′-end.) After the data acquisition, the CYP24A1 or CD14 mRNA expression level is normalized to the GAPDH mRNA level. FIGS. 2A and 2B show the results from a typical CYP24A1 (FIG. 2A) and CD14 (FIG. 2B) expression study.
For orientation: In qPCR the cycle at which signal appears reflects the starting amount.

The subject of the next series is CD14. Briefly: CD14 expression induction in HL-60 promyelocytic leukemia cells (real-time RT-PCR). The class given is cell-based. The following applies: Homo sapiens; HL-60 cells, 24 h, mRNA normalized to GAPDH; Table 3 summary, some values average of 3 or more determinations; read-out: CD14 EC50. The protocol: as §1, §2, §3
The subject of the next series is normal mice. Nature of the series: Hypercalcemic side effect profile and serum PTH in normal mice. The following applies: for dose at which compound starts to raise serum Ca: i.p. dosing once daily for 3 consecutive days. The class given is in vivo, Male C57/BL mice. The protocol: The normal mice model is a convenient and quick way to assess the hypercalcemic side effect profile of compounds. At the same time, data on serum PTH can be collected.
Male C57/BL mice at 18-20 g are dosed with the test agent at 100 al/mouse (concentrations as indicated) i.p. once daily for 3 consecutive days or at 10 ml/kg, p.o. gavage, once daily for 5 days. The animals were harvested 24 h after the last dose by anesthetization with ketamine/xylazine. Blood was collected from the aorta. Serum total calcium was measured using the QuantiChrom Calcium Assay kit and/or the Roche Hitachi 912 Chemistry Analyzer. Serum PTH was measured using a PTH Immunoassay. Vehicle control was 100 l/mouse of 5% EtOH/95% propylene glycol for i.p. dosing or 10 ml/kg of 20% Hydroxypropyl-β-Cyclodextrin for p.o. gavage dosing.
For serum chemistry data, group mean±SEM are presented. Differences between vehicle and compound-treated groups are assessed using a one-way ANOVA followed by a Dunnett's post-hoc test. FIGS. 3A and 3B show the results from a typical p.o. gavage dosing study (n=4-9 per group).

Series [1] in a line: Maximal absorbance wavelength and extinction coefficient (spectrophotometer scan). To be noted: 100 μM in 50:50 de-ionized water and ethanol; for extinction coefficient: in M-1·cm-1 (unit assumed). The class given is physicochemical. The procedure:
To determine the maximal absorbance wavelength (ODmax) and the extinction coefficients for the compounds, each compound is diluted in a 50:50 solution (by volume) of de-ionized water and ethanol at 100 μM and scanned by a spectrophotometer.

Another series relates to uremic rats. The following applies: cited from earlier work.
Where [2] appears, read: Slatopolsky et al., 1998, converted from ng/rat.

In the case of `C[C@@H](CSc1cccc(C(C)(C)O)c1)C1CCC2/C(=C/C=C3C[C@@H](O)C4(CC4)[C@H](O)C3)CCCC21C` (stereo partly drawn) [Vida-58, (4R,8R)-6-((E)-2-(1-((R)-1-(3-(2-hydroxypropan-2-yl)phenylthio)propan-2-yl)-7α-methyldihydro-1H-inden-4(2H,5H,6H, 7H, 7αH)-ylidene)ethylidene)spiro[2.5]octane-4,8-diol], the negative-log EC50 (pEC50) (usually the EC50 on a negative log10 scale, so that one unit is a factor of ten) with CYP24A1 was 7.31; in the series with CD14 it was 6.90.

For the molecule `C=C1[C@H](O)CC(=C/C=C2\CCCC3(C)C2CCC3[C@@H](C)COc2cccc(C(C)(C)O)c2)C[C@H]1O` (stereo partly drawn) [Vida-37, (1R,3R)-5-((E)-2-(1-((R)-1-(3-(2-hydroxypropan-2-yl)phenoxy)propan-2-yl)-7α-methyldihydro-1H-inden-4(2H, 5H, 6H, 7H, 7αH)-ylidene)ethylidene)-2-methylenecyclohexane-1,3-diol], the pEC50 in the series with CYP24A1 was 8.21. In the series on CD14, the pEC50 was 7.92. Besides, the “dose at which compound starts to raise serum Ca” value (“dose … to raise serum Ca” below) with normal mice is 10 µg/kg. In series [1], the maximal absorbance wavelength stood at 254 nm and the extinction coefficient was found to be 25720.

Turning to `CCC(O)(CC)CCCO[C@H](C)C1CCC2/C(=C/C=C3C[C@@H](O)C4(CC4)[C@H](O)C3)CCCC21C` (stereo partly drawn) [Vida-20, (4R,8R)-6-((E)-2-((1S,7αS)-1-((R)-1-(4-ethyl-4-hydroxyhexyloxy)ethyl)-7α-methyldihydro-1H-inden-4(2H, 5H, 6H, 7H, 7αH)-ylidene)ethylidene)spiro[2.5]octane-4,8-diol], in the series on CYP24A1, the negative logarithm of the EC50 (pEC50) was 8.17. The negative logarithm of the EC50 (pEC50) in the series with CD14 is 8.80. Further, the “dose … to raise serum Ca” value in the series with normal mice was 1 µg/kg. In series [1], the maximal absorbance wavelength came out at 253 nm and the extinction coefficient is reported as 23340.

Turning to `C=C1[C@H](O)CC(=C/C=C2\CCCC3(C)C2CCC3[C@@H](C)CSc2cccc(C(C)(C)O)c2)C[C@H]1O` (stereo partly drawn) [Vida-43, (1R,3R)-5-((E)-2-(1-((R)-1-(3-(2-hydroxypropan-2-yl)phenylthio)propan-2-yl)-7α-methyldihydro-1H-inden-4(2H, 5H, 6H, 7H, 7αH)-ylidene)ethylidene)-2-methylenecyclohexane-1,3-diol], the negative logarithm of the EC50 (pEC50) in the series on CYP24A1 is 8.16. Besides, the pEC50 in the series with CD14 is 7.20. Besides, in series [1], the maximal absorbance wavelength came out at 254 nm and the extinction coefficient came to 43580.

`C[C@@H](OCCC(C)(C)O)C1CCC2/C(=C/C=C3C[C@@H](O)C4(CC4)[C@H](O)C3)CCCC21C` (stereo partly drawn) [Vida-1, (4R,8R)-6-((E)-2-((1S,7αS)-1-((R)-1-(3-hydroxy-3-methylbutoxy)ethyl)-7α-methyldihydro-1H-inden-4(2H, 5H, 6H, 7H, 7αH)-ylidene)ethylidene)spiro[2.5]octane-4,8-diol]: the pEC50 in the series with CYP24A1 is 7.16. Besides, the pEC50 in the series with CD14 was 7.66. Moreover, in the series on normal mice, the “dose … to raise serum Ca” value was 0.01 µg/kg. In series [1], this molecule came in with a maximal absorbance wavelength of 253 nm and an extinction coefficient of 29550.

As for `C[C@@H](OC[C@H](C)C(C)(C)O)C1CCC2/C(=C/C=C3C[C@@H](O)C4(CC4)[C@H](O)C3)CCCC21C` (stereo partly drawn) [Vida-4, (4R,8R)-6-((E)-2-((3αS,7αS)-1-((R)-1-((S)-3-hydroxy-2,3-dimethylbutoxy)ethyl)-7α-methyldihydro-1H-inden-4(2H, 5H, 6H, 7H, 7αH)-ylidene)ethylidene) spiro[2.5]octane-4,8-diol], the negative logarithm of the EC50 (pEC50) in the series on CYP24A1 is 6.72. Moreover, the pEC50 in the series on CD14 was 7.51. For the same molecule, the “fold less potent in raising serum Ca than Vida-1” value in the series with normal mice (i.p. dosing, FIG. 4) is recorded as “at least 100 fold”. Besides, in series [1], the maximal absorbance wavelength was 253 nm and the extinction coefficient is recorded as 23610.

With `C=C1/C(=C\C=C2/CCC[C@]3(C)[C@@H]([C@H](C)CCCC(C)(C)O)CC[C@@H]23)C[C@@H](O)C[C@@H]1O` [calcitriol, 1,25-dihydroxyvitamin D3], in the series with uremic rats (setting [2]), the “dose at which compound raises serum Ca” value is about 0.01 µg/kg and the “dose at which compound starts to suppress serum PTH” value was about 0.02 µg/kg. For the same molecule, in the series on uremic rats (Slatopolsky et al., 1998), the “dose at which compound raises serum Ca” value is on record as 4 ng/rat and the “dose at which compound starts to suppress serum PTH” value is listed as 8 ng/rat.

For `C[C@@H](COc1cccc(C(C)(C)O)c1)[C@H]1CC[C@H]2/C(=C/C=C3C[C@@H](O)C4(CC4)[C@H](O)C3)CCC[C@]12C` [Vida-57, (4R,8R)-6-((E)-2-(1-((R)-1-(3-(2-hydroxypropan-2-yl)phenoxy)propan-2-yl)-7-methyldihydro-1H-inden-4(2H,5H,6H, 7H,7αH)-ylidene)ethylidene)spiro[2.5]octane-4,8-diol], the negative logarithm of the EC50 (pEC50) in the series on CYP24A1 was 7.44. The pEC50 in the series on CD14 was 7.68. In series [1], this molecule registered a maximal absorbance wavelength of 253 nm and an extinction coefficient of 49670.

Consider `C=C1[C@H](O)CC(=C/C=C2\CCC[C@]3(C)[C@@H]([C@H](C)COc4ccccc4)CC[C@@H]23)C[C@H]1O` [Vida-36, (1R,3R)-5-((E)-2-((1R,3αS,7αR)-7α-methyl-1-((S)-1-phenoxypropan-2-yl)dihydro-1H-inden-4(2H, 5H, 6H, 7H, 7αH)-ylidene)ethylidene)-2-methylenecyclohexane-1,3-diol], for which the pEC50 in the series with CYP24A1 is 3.60; with CD14, 4.47. In series [1], this molecule displayed a maximal absorbance wavelength of 254 nm. In series [1], this molecule gave an extinction coefficient of 26850.
